Experimental data from ChEMBL document CHEMBL2396519, “Structure-based design of β-site APP cleaving enzyme 1 (BACE1) inhibitors for the treatment of Alzheimer's disease” (J Med Chem, 2013).

What was measured:
[1] = target: Cathepsin D (Homo sapiens) (UniProt P07339); assay: Inhibition of human liver Cathepsin D
[2] = target: Beta-secretase 1 (Homo sapiens) (UniProt P56817); assay: Inhibition of BACE1 in HEK293 cells; assay type: cell-based
[3] = target: Beta-secretase 1 (Homo sapiens) (UniProt P56817); assay: Inhibition of human recombinant BACE1 using MBP-C12Swe as substrate by FRET assay
Canis familiaris [4] = assay: Inhibition of BACE1 in beagle dog assessed as reduced CSF Abeta level at 5 mg/kg, po after 3 hrs; assay type: functional; settings: Canis lupus familiaris
[5] = Half life in beagle dog at 5 mg/kg, po; assay type: ADME, organism-based, Canis lupus familiaris; design: dose 5 mg/kg, route oral; settings: in vivo
Canis familiaris [6] = assay: Inhibition of BACE1 in beagle dog assessed as reduced CSF Abeta level at 5 mg/kg, po after 9 hrs; assay type: functional; settings: Canis lupus familiaris
Sus scrofa = species: Sus scrofa; assay: Inhibition of pig gastric mucosa pepsin
[7] = Plasma concentration in beagle dog at 5 mg/kg, po after 1 hr; assay type: ADME, organism-based, Canis lupus familiaris; design: dose 5 mg/kg, route oral
Brain [8] = assay: Drug uptake in mouse brain at 10 mg/kg, po; assay type: ADME, organism-based; design: dose 10 mg/kg, route oral; settings: in vivo
[9] = target: T1, Beta-secretase 2 (Homo sapiens) (UniProt Q9Y5Z0); assay: Inhibition of human BACE2 by mcaFRET assay
T1 sequence (whole entry): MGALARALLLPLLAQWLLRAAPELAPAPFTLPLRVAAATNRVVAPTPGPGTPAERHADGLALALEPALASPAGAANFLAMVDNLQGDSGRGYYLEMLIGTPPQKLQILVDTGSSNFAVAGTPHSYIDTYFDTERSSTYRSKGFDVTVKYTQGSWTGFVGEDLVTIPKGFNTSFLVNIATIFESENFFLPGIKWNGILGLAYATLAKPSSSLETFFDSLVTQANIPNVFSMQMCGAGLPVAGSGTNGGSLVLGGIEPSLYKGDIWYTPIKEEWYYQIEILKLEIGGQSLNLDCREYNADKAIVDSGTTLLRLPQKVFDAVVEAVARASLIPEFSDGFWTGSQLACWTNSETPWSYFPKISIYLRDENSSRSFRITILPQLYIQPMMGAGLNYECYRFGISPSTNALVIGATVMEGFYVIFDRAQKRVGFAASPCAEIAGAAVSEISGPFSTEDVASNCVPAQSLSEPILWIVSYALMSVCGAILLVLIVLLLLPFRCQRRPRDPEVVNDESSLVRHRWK

Homo sapiens [10] = assay: Inhibition of BACE1 in alzheimer's disease patient assessed as reduction of plasma Abeta40 level at 90 mg/kg after 24 hrs; assay type: functional
Brain [11] = assay: Drug uptake in mouse brain at 30 mg/kg, po; assay type: ADME, organism-based; design: dose 30 mg/kg, route oral; settings: in vivo
Homo sapiens [12] = assay: Inhibition of BACE1 in alzheimer's disease patient assessed as reduction of plasma Abeta40 level at 90 mg/kg after 7 hrs; assay type: functional
Renin (Homo sapiens) = target: T2, Renin (Homo sapiens) (UniProt P00797); assay: Inhibition of recombinant renin (unknown origin)
T2 sequence (whole entry): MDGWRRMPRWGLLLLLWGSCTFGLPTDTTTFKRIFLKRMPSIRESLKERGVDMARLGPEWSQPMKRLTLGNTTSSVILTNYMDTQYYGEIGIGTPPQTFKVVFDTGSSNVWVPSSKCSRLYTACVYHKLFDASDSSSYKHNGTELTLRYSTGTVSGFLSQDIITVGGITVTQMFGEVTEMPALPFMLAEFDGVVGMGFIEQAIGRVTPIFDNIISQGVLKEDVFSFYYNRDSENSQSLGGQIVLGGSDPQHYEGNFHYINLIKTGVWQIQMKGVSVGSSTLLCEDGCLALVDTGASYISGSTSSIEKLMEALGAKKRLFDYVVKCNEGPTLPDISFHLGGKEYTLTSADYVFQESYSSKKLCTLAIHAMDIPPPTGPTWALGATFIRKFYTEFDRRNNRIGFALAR

Brain [13] = assay: Drug uptake in mouse brain at 100 mg/kg, po; assay type: ADME, organism-based; design: dose 100 mg/kg, route oral; settings: in vivo
Canis familiaris [14] = assay: Inhibition of BACE1 in beagle dog assessed as reduced plasma Abeta level at 5 mg/kg, po after 4 to 12 hrs; assay type: functional; settings: Canis lupus familiaris
Mus musculus [15] = assay: Inhibition of BACE1 in TASTPM mouse assessed as reduced brain Abeta40 at 250 mg/kg, po bid after 5 days; assay type: functional; settings: 120 h
Mus musculus [16] = assay: Inhibition of BACE1 in TASTPM mouse assessed as reduced brain Abeta42 at 250 mg/kg, po bid after 5 days; assay type: functional; settings: 120 h
Homo sapiens [17] = assay: Inhibition of BACE1 in alzheimer's disease patient assessed as reduction of CSF Abeta level at 15 mg/kg; assay type: functional
Homo sapiens [18] = assay: Inhibition of BACE1 in alzheimer's disease patient assessed as reduction of CSF Abeta level at 35 mg/kg; assay type: functional
[19] = target: T1, Beta-secretase 2 (Homo sapiens); assay: Inhibition of BACE2 (unknown origin)
[20] = target: Beta-secretase 1 (Homo sapiens) (UniProt P56817); assay: Inhibition of BACE1 (unknown origin) in a cell-based assay

Beta-secretase 1 (Homo sapiens), sequence (P56817 whole entry): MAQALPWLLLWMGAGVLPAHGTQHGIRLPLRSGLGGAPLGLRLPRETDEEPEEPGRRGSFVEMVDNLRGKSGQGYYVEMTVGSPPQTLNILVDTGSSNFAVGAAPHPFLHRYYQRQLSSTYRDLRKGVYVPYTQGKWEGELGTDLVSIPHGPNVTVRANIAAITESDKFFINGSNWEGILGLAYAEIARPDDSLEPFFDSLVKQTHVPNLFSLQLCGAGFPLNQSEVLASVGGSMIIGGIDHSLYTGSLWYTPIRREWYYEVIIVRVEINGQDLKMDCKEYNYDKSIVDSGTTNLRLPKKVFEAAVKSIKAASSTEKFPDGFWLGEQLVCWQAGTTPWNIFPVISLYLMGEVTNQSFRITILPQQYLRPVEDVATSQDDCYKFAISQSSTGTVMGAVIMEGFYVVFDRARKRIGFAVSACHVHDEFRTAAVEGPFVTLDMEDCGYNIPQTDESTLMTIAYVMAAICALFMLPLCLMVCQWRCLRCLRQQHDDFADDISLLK
Cathepsin D (Homo sapiens), sequence (P07339 65-162 limits assumed): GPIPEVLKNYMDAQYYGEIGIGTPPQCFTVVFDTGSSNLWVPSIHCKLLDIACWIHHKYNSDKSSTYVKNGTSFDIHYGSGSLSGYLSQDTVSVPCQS
Cathepsin D (Homo sapiens), sequence (P07339 169-412 limits assumed): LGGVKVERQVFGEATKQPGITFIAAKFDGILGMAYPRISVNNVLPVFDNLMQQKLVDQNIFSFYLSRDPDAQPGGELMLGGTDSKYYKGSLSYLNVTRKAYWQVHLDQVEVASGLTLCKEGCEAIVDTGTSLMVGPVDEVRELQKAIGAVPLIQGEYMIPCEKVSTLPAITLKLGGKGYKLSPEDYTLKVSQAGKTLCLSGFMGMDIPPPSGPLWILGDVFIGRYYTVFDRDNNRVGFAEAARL

C[C@@]1(c2cc(-c3cncnc3)c(F)cc2F)CCSC(N)=N1 [LY-2811376]
INH [1]: 15.7 µM
INH [2]: 0.3 µM
INH [3]: 0.24 µM
inhibition in vivo at 5 mg/kg (Canis familiaris [4]): 43%
half-life [5]: 408 min
inhibition in vivo at 5 mg/kg (Canis familiaris [6]): 70%
INH (Sus scrofa): 32.6 µM
concentration at 1 h [7]: 1920 ng/mL
Drug uptake (Brain [8]): 1.46 µg/g
INH [9]: 2.8 µM
inhibition in vivo at 90 mg/kg (Homo sapiens [10]): 64%
Drug uptake (Brain [11]): 3.35 µg/g
inhibition in vivo at 90 mg/kg (Homo sapiens [12]): 80%
INH (Renin (Homo sapiens)): 39 µM
Drug uptake (Brain [13]): 12.12 µg/g
inhibition in vivo at 5 mg/kg (Canis familiaris [14]): 85%

Cc1ccc2c(c1)CSC(N)=N2
INH [3]: 790 µM

CCNc1cc(C(=O)N[C@@H](Cc2ccccc2)[C@H](O)CNCc2cccc(C(F)(F)F)c2)cc(N2CCCCS2(=O)=O)c1
inhibition in vivo at 250 mg/kg (Mus musculus [15]): 18%
inhibition in vivo at 250 mg/kg (Mus musculus [16]): 23%

NC1=N[C@@]2(c3cc(NC(=O)c4ccc(F)cn4)ccc3F)COC[C@H]2CS1 [LY-2886721]
inhibition in vivo at 15 mg/kg (Homo sapiens [17]): 30%
inhibition in vivo at 35 mg/kg (Homo sapiens [18]): 60%

CC(C)C[C@H](NC(=O)[C@@H]1CC(=O)NCCCCCCOC(=O)N[C@@H](C(C)C)C(=O)N1)[C@@H](O)C[C@@H](C)C(=O)N[C@H](C(=O)NCc1ccccc1)C(C)C
INH [19]: 0.0045 µM
INH [20]: 4 µM

C[C@@H](NC(=O)c1cc(C(=O)N[C@@H](Cc2ccccc2)[C@H](O)[C@@H]2NC(C)(C)N(Cc3ccccc3)C2=O)cc(N(C)S(C)(=O)=O)c1)c1ccc(F)cc1
INH [20]: 0.03 µM

C[C@@]1(c2cccc(-c3cncnc3)c2)CCSC(N)=N1
INH [3]: 0.92 µM

C[C@@H](NC(=O)c1cc(C(=O)N[C@@H](Cc2ccccc2)[C@H](O)[C@@H]2NC(C)(C)N(C)C2=O)cc(N(C)S(C)(=O)=O)c1)c1ccc(F)cc1
INH [20]: 18 µM

C[C@@H]1N[C@@H]([C@@H](O)[C@H](Cc2ccccc2)NC(=O)c2cc(C(=O)N[C@H](C)c3ccc(F)cc3)cc(N(C)S(C)(=O)=O)c2)C(=O)N1Cc1ccccc1
INH [20]: 0.028 µM
